{"source": "patent US6545038B1", "about": "“Heterocyclic metalloprotease inhibitors” (The Procter & Gamble Company, priority 1996, dated 2003)", "assay": "Method of use Example B: daily capsule in a subject suffering from osteoarthritis", "assay_type": "in vivo", "details": "human male, capsule containing 70 mg daily for 5 years", "method": "A human subject weighing 90 kg (198 lbs), suffering from osteoarthritis, is treated by a method of this invention. Specifically, for 5 years, a capsule containing 70 mg of Example 3 is administered daily to said subject.", "data": [{"smiles": "COc1ccc(S(=O)(=O)N2CCCSC(C)(C)[C@@H]2C(=O)N(C)O)cc1", "note": "[Example 3, 3(S)-N-Hydroxy-N-methyl-2,2-dimethyl-4N-[(4-methoxyphenyl)sulfonyl]-thiazepine-3-carboxamide]", "values": [{"measurement": "erosion/fibrillation of the articular cartilage, examined via orthoscopy", "value": "no further advancement of erosion/fibrillation of the articular cartilage"}]}]}
